From patent publication US7763630B2 (priority 2007, dated 2010) come the findings set out here.

pEC50, pIC50, pKi: −log10 of the molar value.

The subject of test [1] is recombinant NL-Rluc virus. Put plainly: Inhibition of HIV replication (NL-Rluc virus). It is filed as cell-based. The following applies: Human immunodeficiency virus 1, read-out: Antiviral Activity.
Test [2] deals with purified integrase (Human immunodeficiency virus type 1 group M subtype B, UniProt P12497). Put plainly: HIV-Integrase binding assay (competition with radiolabeled compound A).
Method: HIV-Integrase binding assay. In this assay competitive binding experiments with test compounds and a radiolabeled integrase inhibitor (compound A) are performed against purified integrase. SPA bead/DNA/enzyme complexes were prepared as for the integrase inhibition assay except, to each well, 0.69 μl of integrase enzyme (0.42 mg/μl) was used per 2 μl of LTR DNA-attached scintillation proximity beads (stock 50 mg/ml). Binding reactions were carried out in 96-well white polystyrene assay plates (Corning, #3600). The following was added sequentially to each well: 20 μl of water or 20 μl of human serum (Cellgro Cat #35-060-CL), 5 μl of serially diluted compound (in 50% DMSO/50% integrase SPA buffer), 5 μl of [^3H]-compound I (6,000 cpm/μl in SPA buffer) and 20 μl of bead/DNA/enzyme complex. The plates were shaken for 2 hours and then allowed to sit at room temperature without shaking overnight. The [^3H]-compound I binding was measured using a Topcount scintillation counter. Cheng and Prusoff equations were used to convert the inhibition of compound 1 binding into the corresponding Ki value.
Test [3] has as its target HIV-integrase (Human immunodeficiency virus type 1 group M subtype B, UniProt P12497). As to the kind of experiment: HIV-Integrase Inhibition Activity (SPA strand transfer assay).
Method: HIV-Integrase Inhibition Activity. To evaluate in-vitro activity against HIV-integrase, 5 pmole of biotin labeled substrate DNA was bound to 100 μg of Streptavidin coated PVT SPA beads (Amersham Pharmacia Biotech). Recombinant integrase (0.26 ng) was incubated with the beads for 90 min at 37° C. Unbound enzyme was removed by washing the complex followed by addition of inhibitors and 0.1 fmol of P33 labeled target DNA. The reaction was stopped by adding EDTA to a final concentration of 10 mM. Samples were counted in TopCountNXT (Packard) and the CPM was used as a measure of integration. […] Activity equal to A refers to a compound having IC50=0.002 to 0.10 μM while B and C denote compounds having IC50=0.1 to 1.0 μM and IC50≧1.0 μM respectively.

As to `CN(C)S(=O)(=O)c1cc(F)ccc1CNC(=O)c1nc(C2CCOC2)n(C)c(=O)c1O` (stereo not drawn) [Example 10, N-(2-(N,N-dimethylsulfamoyl)-4-fluorobenzyl)-5-hydroxy-1-methyl-6-oxo-2-(tetrahydrofuran-3-yl)-1,6-dihydropyrimidine-4-carboxamide], in test [1], the pEC50 is 7.00 to 8.52. The negative logarithm of the Ki (pKi) in test [2] is 7.30 to 8.52.
Regarding `Cn1c(C2CCOC2)nc(C(=O)NCc2ccc(F)cc2)c(O)c1=O` (stereo not drawn) [Example 1, N-(4-Fluorobenzyl)-5-hydroxy-1-methyl-6-oxo-2-(tetrahydrofuran-3-yl)-1,6-dihydropyrimidine-4-carboxamide], in test [1], the pEC50 is 7.00 to 8.52. The compound also gave a pIC50 in test [3] of 7.00 to 8.70.
`Cn1c(C2CCOC2)nc(C(=O)NCc2ccc(F)cc2-n2cncn2)c(O)c1=O` (stereo not drawn) [Example 3, N-(4-fluoro-2-(1H-1,2,4-triazol-1-yl)benzyl)-5-hydroxy-1-methyl-6-oxo-2-(tetrahydrofuran-3-yl)-1,6-dihydropyrimidine-4-carboxamide]: the pEC50 in test [1] was 7.00 to 8.52. Further, in test [2], the pKi is 8.52 to 9.00.
As for `Cn1cnnc1-c1cc(F)ccc1CNC(=O)c1nc(C2CCOC2)n(C)c(=O)c1O` (stereo not drawn) [Example 11, N-(4-fluoro-2-(4-methyl-4H-1,2,4-triazol-3-yl)benzyl)-5-hydroxy-1-methyl-6-oxo-2-(tetrahydrofuran-3-yl)-1,6-dihydropyrimidine-4-carboxamide], in test [1], the pEC50 is 7.00 to 8.52. The pKi in test [2] is 8.52 to 9.00.
In the same order, the values of `CN1CCN(c2cc(F)ccc2CNC(=O)c2nc(C3CCOC3)n(C)c(=O)c2O)C1=O` (stereo not drawn) [Example 12, N-(4-fluoro-2-(3-methyl-2-oxoimidazolidin-1-yl)benzyl)-5-hydroxy-1-methyl-6-oxo-2-(tetrahydrofuran-3-yl)-1,6-dihydropyrimidine-4-carboxamide] are 7.00 to 8.52 and 8.52 to 9.00.
In the same order, the values of `Cn1c(C2CCOCC2)nc(C(=O)NCc2ccccc2N2CCCCS2(=O)=O)c(O)c1=O` [Example 25] are 7.00 to 8.52 and 7.30 to 8.52.
The like results for `Cn1c(C2CCOCC2)nc(C(=O)NCc2ccc(F)cc2-n2cncn2)c(O)c1=O` [Example 18, N-(4-fluoro-2-(1H-1,2,4-triazol-1-yl)benzyl)-5-hydroxy-1-methyl-6-oxo-2-(tetrahydro-2H-pyran-4-yl)-1,6-dihydropyrimidine-4-carboxamide] were, in that order, 7.00 to 8.52 and 7.30 to 8.52.
As to `Cn1ncnc1-c1cc(F)ccc1CNC(=O)c1nc(C2CCOCC2)n(C)c(=O)c1O` [Example 21, N-(4-fluoro-2-(1-methyl-1H-1,2,4-triazol-5-yl)benzyl)-5-hydroxy-1-methyl-6-oxo-2-(tetrahydro-2H-pyran-4-yl)-1,6-dihydropyrimidine-4-carboxamide], the pEC50 in test [1] is 7.00 to 8.52. Besides, the negative-log Ki (pKi) in test [2] was 8.52 to 9.00.
As for `CSC1COCC1c1nc(C(=O)NCc2ccc(F)cc2)c(O)c(=O)n1C` (stereo not drawn) [Example 16, N-(4-Fluorobenzyl)-5-hydroxy-1-methyl-2-(4-(methylthio)tetrahydrofuran-3-yl)-6-oxo-1,6-dihydropyrimidine-4-carboxamide], the pEC50 in test [1] was 7.00 to 8.52. In addition, in test [3], the negative logarithm of the IC50 (pIC50) was 7.00 to 8.70.
On to `Cn1c(C2CCOC2)nc(C(=O)NCc2ccc(F)cc2N2CCN(CCO)C2=O)c(O)c1=O` (stereo not drawn) [Example 14, N-(4-fluoro-2-(3-(2-hydroxyethyl)-2-oxoimidazolidin-1-yl)benzyl)-5-hydroxy-1-methyl-6-oxo-2-(tetrahydrofuran-3-yl)-1,6-dihydropyrimidine-4-carboxamide], for which the pEC50 in test [1] was 7.00 to 8.52. In test [2], the pKi is 8.52 to 9.00.
Regarding `Cn1c(C2COCC2O)nc(C(=O)NCc2ccc(F)cc2)c(O)c1=O` (stereo not drawn) [Example 15, N-(4-Fluorobenzyl)-5-hydroxy-2-(4-hydroxytetrahydrofuran-3-yl)-1-methyl-6-oxo-1,6-dihydropyrimidine-4-carboxamide], the pEC50 in test [1] was 7.00 to 8.52. The compound also showed a negative-log IC50 (pIC50) in test [3] of 7.00 to 8.70.
Turning to `COCCN1CCN(c2cc(F)ccc2CNC(=O)c2nc(C3CCOC3)n(C)c(=O)c2O)C1=O` (stereo not drawn) [Example 13, N-(4-fluoro-2-(3-(2-methoxyethyl)-2-oxoimidazolidin-1-yl)benzyl)-5-hydroxy-1-methyl-6-oxo-2-(tetrahydrofuran-3-yl)-1,6-dihydropyrimidine-4-carboxamide], the pEC50 in test [1] was 7.00 to 8.52. In test [2], this compound had a pKi of 8.52 to 9.00.
In the same order, the values of `Cc1ncnn1-c1cc(F)ccc1CNC(=O)c1nc(C2CCOCC2)n(C)c(=O)c1O` [Example 19, N-(4-fluoro-2-(5-methyl-1H-1,2,4-triazol-1-yl)benzyl)-5-hydroxy-1-methyl-6-oxo-2-(tetrahydro-2H-pyran-4-yl)-1,6-dihydropyrimidine-4-carboxamide] are 7.00 to 8.52 and 7.30 to 8.52.
With `Cn1c(C2CCOCC2)nc(C(=O)NCc2ccc(F)cc2)c(O)c1=O` [Example 17, N-(4-Fluorobenzyl)-5-hydroxy-1-methyl-6-oxo-2-(tetrahydro-2H-pyran-4-yl)-1,6-dihydropyrimidine-4-carboxamide], the pEC50 in test [1] is 7.00 to 8.52. The same compound showed a negative-log IC50 (pIC50) in test [3] of 7.00 to 8.70.
Consider `Cc1cnnn1-c1cc(F)ccc1CNC(=O)c1nc(C2CCOC2)n(C)c(=O)c1O` (stereo not drawn) [Example 5, N-(4-fluoro-2-(5-methyl-1H-1,2,3-triazol-1-yl)benzyl)-5-hydroxy-1-methyl-6-oxo-2-(tetrahydrofuran-3-yl)-1,6-dihydropyrimidine-4-carboxamide], for which the pEC50 in test [1] was 7.00 to 8.52. Moreover, the pKi in test [2] is 7.30 to 8.52.
In the case of `Cn1cnnc1-c1cc(F)ccc1CNC(=O)c1nc(C2CCOCC2)n(C)c(=O)c1O` [Example 26, N-(4-fluoro-2-(4-methyl-4H-1,2,4-triazol-3-yl)benzyl)-5-hydroxy-1-methyl-6-oxo-2-(tetrahydro-2H-pyran-4-yl)-1,6-dihydropyrimidine-4-carboxamide], the pEC50 in test [1] was 7.00 to 8.52. Further, in test [2], the negative-log Ki (pKi) is 8.52 to 9.00.
The like results for `Cn1c(C2CCOCC2)nc(C(=O)NCc2ccc(F)cc2S(C)(=O)=O)c(O)c1=O` [Example 22, N-(4-fluoro-2-(methylsulfonyl)benzyl)-5-hydroxy-1-methyl-6-oxo-2-(tetrahydro-2H-pyran-4-yl)-1,6-dihydropyrimidine-4-carboxamide] were, in that order, 7.00 to 8.52 and 7.30 to 8.52.
In the same order, the values of `CN(C)S(=O)(=O)c1cc(F)ccc1CNC(=O)c1nc(C2CCOCC2)n(C)c(=O)c1O` [Example 23, N-(2-(N,N-dimethylsulfamoyl)-4-fluorobenzyl)-5-hydroxy-1-methyl-6-oxo-2-(tetrahydro-2H-pyran-4-yl)-1,6-dihydropyrimidine-4-carboxamide] are 7.00 to 8.52 and 7.30 to 8.52.
Regarding `Cc1cnnn1-c1cc(F)ccc1CNC(=O)c1nc(C2CCOCC2)n(C)c(=O)c1O` [Example 20, N-(4-fluoro-2-(5-methyl-1H-1,2,3-triazol-1-yl)benzyl)-5-hydroxy-1-methyl-6-oxo-2-(tetrahydro-2H-pyran-4-yl)-1,6-dihydropyrimidine-4-carboxamide], the pEC50 in test [1] was 7.00 to 8.52. In test [2], this compound had a negative logarithm of the Ki (pKi) of 7.30 to 8.52.
In the same order, the values of `Cc1ncnn1-c1cc(F)ccc1CNC(=O)c1nc(C2CCOC2)n(C)c(=O)c1O` (stereo not drawn) [Example 4, N-(4-fluoro-2-(5-methyl-1H-1,2,4-triazol-1-yl)benzyl)-5-hydroxy-1-methyl-6-oxo-2-(tetrahydrofuran-3-yl)-1,6-dihydropyrimidine-4-carboxamide] are 7.00 to 8.52 and 7.30 to 8.52.
Turning to `Cn1c(C2CCOC2)nc(C(=O)NCc2ccc(F)cc2S(C)(=O)=O)c(O)c1=O` (stereo not drawn) [Example 7, N-(4-fluoro-2-(methylsulfonyl)benzyl)-5-hydroxy-1-methyl-6-oxo-2-(tetrahydrofuran-3-yl)-1,6-dihydropyrimidine-4-carboxamide], the pEC50 in test [1] is 7.00 to 8.52. Besides, the negative logarithm of the Ki (pKi) in test [2] was 7.30 to 8.52.
In the same order, the values of `Cn1c(C2CCOC2)nc(C(=O)NCc2ccccc2N2CCCCS2(=O)=O)c(O)c1=O` (stereo not drawn) [Example 8] are 7.00 to 8.52 and 7.30 to 8.52.
As for `Cc1cc(CNC(=O)c2nc(C3CCOC3)n(C)c(=O)c2O)ccc1F` (stereo not drawn) [Example 2, N-(4-Fluoro-3-methylbenzyl)-5-hydroxy-1-methyl-6-oxo-2-(tetrahydrofuran-3-yl)-1,6-dihydropyrimidine-4-carboxamide], the pEC50 in test [1] was 7.00 to 8.52. Besides, in test [3], the pIC50 is 7.00 to 8.70.
Regarding `Cn1ncnc1-c1cc(F)ccc1CNC(=O)c1nc(C2CCOC2)n(C)c(=O)c1O` (stereo not drawn) [Example 6, N-(4-fluoro-2-(1-methyl-1H-1,2,4-triazol-5-yl)benzyl)-5-hydroxy-1-methyl-6-oxo-2-(tetrahydrofuran-3-yl)-1,6-dihydropyrimidine-4-carboxamide], the pEC50 in test [1] was 7.00 to 8.52. Moreover, the negative logarithm of the Ki (pKi) in test [2] was 7.30 to 8.52.
